Test results taken from patent publication US20190308988A1, “OPIOID RECEPTOR ANTAGONIST PRODRUGS” (Nirsum Laboratories, Inc., priority 2017, published 2019).
≈ marks a conversion by molar mass, not a printed value.

Key:
[1] = Solubility determination in oil (Table 10); conditions: thermodynamic from solid; for solubility at 24 h: 25 °C, Obs. Temp. 25 °C; for solubility thermodynamic: water, Equilibrium solubility: Water
Method: A known amount of test substance (˜40 mg) was weighed into the vial, 100 μL of oil was added and heated to 60° C. and then system was slurried to reach equilibrium. […] Extra oil was added into the vial once compound precipitated out and then the system was re-equilibrated at 1000 rpm at room temperature (25° C.). Final concentration was determined by HPLC method as described below in Table 6a and 6b.

[2] = Polymorph screening of solid state drug substances (Table 23); format: physicochemical; conditions: stirred 50 °C 72 hours; for Dry method and appearance: dried solid
[3] = oil or lipid, Approximate Solubility in Excipient: Cottonseed oil, Heating Temp. 60 °C
[4] = oil or lipid, Approximate Solubility in Excipient: Sesame oil, Heating Temp. 60 °C
[5] = 40 °C, Heating Temp. 40 °C, Obs. Temp. 40 °C
[6] = 40 °C, oil or lipid, Approximate Solubility in Excipient: Cottonseed oil, Heating Temp. 40 °C, Obs. Temp. 40 °C
[7] = 40 °C, oil or lipid, Approximate Solubility in Excipient: Sesame oil, Heating Temp. 40 °C, Obs. Temp. 40 °C
[8] = 40 °C, organic solvent or mixture, Approximate Solubility in Excipient: Ethanol, Heating Temp. 40 °C, Obs. Temp. 40 °C

Work on CCCCCCCCCCCCCCCC(=O)Oc1ccc2c3c1O[C@H]1C(=O)CC[C@@]4(O)C(C2)N(CC2CC2)CC[C@]314 [Compound 55, (4aS,7aR,12bS)-3-(cyclopropylmethyl)-4a-hydroxy-7-oxo-2,3,4,4a,5,6,7,7a-octahydro-1H-4,12-methanobenzofuro[3,2-e]isoquinolin-9-yl palmitate] yielded a solubility at 24 h [1, 3] of under 50 mg/mL, a solubility at 24 h [1, 4] of under 50 mg/mL and a solubility ([1]; 40 °C, oil or lipid, Approximate Solubility in Excipient: Cottonseed oil, Heating Temp. 60 °C, Obs. Temp. 40 °C) of over 400 mg/mL. The solubility ([1]; 40 °C, oil or lipid, Approximate Solubility in Excipient: Sesame oil, Heating Temp. 60 °C, Obs. Temp. 40 °C) was over 395 mg/mL, the solubility ([1]; 40 °C, organic solvent or mixture, Approximate Solubility in Excipient: Ethanol, Heating Temp. 60 °C, Obs. Temp. 40 °C) was over 401 mg/mL and the solubility thermodynamic ([1]; 40 °C, Heating Temp. 60 °C, Obs. Temp. 40 °C) was 0.0066 mg/mL (≈ 0.0114 mM). The solubility thermodynamic ([1]; after slurry in EtOAc, temperatures N/A) was under 0.0005 mg/mL, the “XRPD results (Dried)” value ([2]; Acetone) was “Pattern B” and the “Dry method and appearance” value ([2]; Acetone) was “Evaporation/white powder”. For the same compound, the “XRPD results (Dried)” value ([2]; EtOAc) was “Pattern B”, the “Dry method and appearance” value ([2]; EtOAc) was “Evaporation/white powder” and the “XRPD results (Dried)” value ([2]; Heptane) was “Pattern B”. The “Dry method and appearance” value ([2]; Heptane) was “Evaporation/white powder”, the “XRPD results (Dried)” value ([2]; Isopropanol) was “Pattern B” and the “Dry method and appearance” value ([2]; Isopropanol) was “Evaporation/white powder”. The “XRPD results (Dried)” value ([2]; MTBE) was “Pattern B” and the “Dry method and appearance” value ([2]; MTBE) was “Evaporation/white powder”.
With CCCCCCCCCCOC(=O)Oc1ccc2c3c1O[C@H]1C(=O)CC[C@@]4(O)C(C2)N(CC2CC2)CC[C@]314 [Compound 10, (4aS,7aR,12bS)-3-(cyclopropylmethyl)-4a-hydroxy-7-oxo-2,3,4,4a,5,6,7,7a-octahydro-1H-4,12-methanobenzofuro[3,2-e]isoquinolin-9-yl decyl carbonate] the “XRPD results (Dried)” value ([2]; Acetone) was “Pattern A”, the “Dry method and appearance” value ([2]; Acetone) was “Evaporation/White wax” and the “XRPD results (Dried)” value ([2]; EtOAc) was “Pattern A”. The “Dry method and appearance” value ([2]; EtOAc) was “Evaporation/White wax”, the “XRPD results (Dried)” value ([2]; Heptane) was “Pattern A” and the “Dry method and appearance” value ([2]; Heptane) was “Centrifugation/White wax”. For the same compound, the “XRPD results (Dried)” value ([2]; Isopropanol) was “Pattern A”, the “Dry method and appearance” value ([2]; Isopropanol) was “Evaporation/White wax” and the “XRPD results (Dried)” value ([2]; MTBE) was “Pattern A”. The “Dry method and appearance” value ([2]; MTBE) was “Evaporation/White wax”.
With C=C1CC[C@@]2(O)C3Cc4ccc(OC(=O)OCCCCCCCCCCCCCC)c5c4[C@@]2(CCN3CC2CC2)[C@H]1O5 [Compound 31, (4aS,7aS,12bS)-3-(cyclopropylmethyl)-4a-hydroxy-7-methylene-2,3,4,4a,5,6,7,7a-octahydro-1H-4,12-methanobenzofuro[3,2-e]isoquinolin-9-yl tetradecyl carbonate] the solubility at 24 h [1, 3] was over 417 mg/mL, the solubility at 24 h [1, 4] was over 414 mg/mL and the solubility thermodynamic [1, 5] was under 0.001 mg/mL. The “XRPD results (Dried)” value ([2]; Acetone) was “Pattern A”, the “Dry method and appearance” value ([2]; Acetone) was “Evaporation/white powder” and the “XRPD results (Dried)” value ([2]; EtOAc) was “Pattern A”. The “Dry method and appearance” value ([2]; EtOAc) was “Evaporation/white powder”, the “XRPD results (Dried)” value ([2]; Heptane) was “Pattern A” and the “Dry method and appearance” value ([2]; Heptane) was “Evaporation/white powder”. For the same compound, the “XRPD results (Dried)” value ([2]; Isopropanol) was “Pattern A”, the “Dry method and appearance” value ([2]; Isopropanol) was “Evaporation/white powder” and the “XRPD results (Dried)” value ([2]; MTBE) was “Pattern A”. For the same compound, the “Dry method and appearance” value ([2]; MTBE) was “Evaporation/white powder”.
For CCCCCCCCCCCCCCC(=O)Oc1ccc2c3c1O[C@H]1C(=O)CC[C@@]4(O)C(C2)N(CC2CC2)CC[C@]314 [Compound 58, (4aS,7aR,12bS)-3-(cyclopropylmethyl)-4a-hydroxy-7-oxo-2,3,4,4a,5,6,7,7a-octahydro-1H-4,12-methanobenzofuro[3,2-e]isoquinolin-9-yl pentadecanoate], the solubility at 24 h [1, 3] was 102 to 204 mg/mL (≈ 180 to 360 mM), the solubility at 24 h [1, 4] was 99.4 to 199 mg/mL (≈ 176 to 351 mM) and the solubility thermodynamic [1, 5] was 0.0014 mg/mL (≈ 0.00247 mM).
With C=C1CC[C@@]2(O)C3Cc4ccc(OC(=O)OCCCCCCCCCCCCCCCCCCCC)c5c4[C@@]2(CCN3CC2CC2)[C@H]1O5 [Compound 28, (4aS,7aS,12bS)-3-(cyclopropylmethyl)-4a-hydroxy-7-methylene-2,3,4,4a,5,6,7,7a-octahydro-1H-4,12-methanobenzofuro[3,2-e]isoquinolin-9-yl icosyl carbonate] the solubility at 24 h [1, 3] was under 50.2 mg/mL, the solubility at 24 h [1, 4] was under 50.6 mg/mL and the solubility thermodynamic [1, 5] was under 0.001 mg/mL.
With CCCCCCCCCCCCCCCCOC(=O)OCOc1ccc2c3c1O[C@H]1C(=O)CC[C@@]4(O)C(C2)N(CC2CC2)CC[C@]314 [Compound 47, (((4aS,7aR,12bS)-3-(cyclopropylmethyl)-4a-hydroxy-7-oxo-2,3,4,4a,5,6,7,7a-octahydro-1H-4,12-methanobenzofuro[3,2-e]isoquinolin-9-yl)oxy)methyl hexadecyl carbonate] the solubility at 24 h [1, 3] was over 406 mg/mL, the solubility at 24 h [1, 4] was over 405 mg/mL and the solubility thermodynamic [1, 5] was under 0.001 mg/mL.
In the case of C=C1CC[C@@]2(O)C3Cc4ccc(OC(=O)CCCCCCC/C=C\C/C=C\CCCCC)c5c4[C@@]2(CCN3CC2CC2)[C@H]1O5 [Compound 37, (4aS,7aS,12bS)-3-(cyclopropylmethyl)-4a-hydroxy-7-methylene-2,3,4,4a,5,6,7,7a-octahydro-1H-4,12-methanobenzofuro[3,2-e]isoquinolin-9-yl (9Z,12Z)-octadeca-9,12-dienoate], the solubility at 24 h [1, 3] is reported as 68.5 to 82 mg/mL (≈ 114 to 136 mM), the solubility at 24 h [1, 4] is reported as 80 to 102 mg/mL (≈ 133 to 169 mM) and the solubility ([1]; 40 °C, oil or lipid, Approximate Solubility in Excipient: Castor oil, Heating Temp. 40 °C, Obs. Temp. 40 °C) is reported as over 226 mg/mL. For the same compound, the solubility [1, 6] was over 405 mg/mL, the solubility [1, 7] was over 408 mg/mL and the solubility [1, 8] was 75 to 90 mg/mL (≈ 125 to 150 mM). It also gave a solubility thermodynamic [1, 5] of 0.002 mg/mL (≈ 0.00332 mM).
Work on C=C1CC[C@@]2(O)C3Cc4ccc(OC(=O)CCCCCCCCCCC/C=C\CCCCCCCC)c5c4[C@@]2(CCN3CC2CC2)[C@H]1O5 [Compound 13, (4aS,7aS,12bS)-3-(cyclopropylmethyl)-4a-hydroxy-7-methylene-2,3,4,4a,5,6,7,7a-octahydro-1H-4,12-methanobenzofuro[3,2-e]isoquinolin-9-yl (Z)-docos-13-enoate] yielded a solubility at 24 h [1, 3] of under 50 mg/mL, a solubility at 24 h [1, 4] of 91 to 121 mg/mL (≈ 138 to 183 mM) and a solubility [1, 6] of over 381 mg/mL. For the same compound, the solubility [1, 7] was over 406 mg/mL, the solubility [1, 8] was over 214 mg/mL and the solubility thermodynamic [1, 5] was 0.002 mg/mL (≈ 0.00303 mM).
C=C1CC[C@@]2(O)C3Cc4ccc(OC(=O)CCCCCCC/C=C\C/C=C\C/C=C\CC)c5c4[C@@]2(CCN3CC2CC2)[C@H]1O5 [Compound 20, (4aS,7aS,12bS)-3-(cyclopropylmethyl)-4a-hydroxy-7-methylene-2,3,4,4a,5,6,7,7a-octahydro-1H-4,12-methanobenzofuro[3,2-e]isoquinolin-9-yl (9Z,12Z,15Z)-octadeca-9,12,15-trienoate] gave a solubility at 24 h [1, 3] of 68 to 82 mg/mL (≈ 113 to 137 mM), a solubility at 24 h [1, 4] of 80 to 100 mg/mL (≈ 133 to 167 mM) and a solubility [1, 6] of over 414 mg/mL. For the same compound, the solubility [1, 7] was over 406 mg/mL, the solubility [1, 8] was 157 to 197 mg/mL (≈ 262 to 328 mM) and the solubility thermodynamic [1, 5] was under 0.0002 mg/mL.
CCCCCCCCCCCCCCCCCCCC(=O)Oc1ccc2c3c1O[C@H]1C(=O)CC[C@@]4(O)C(C2)N(CC2CC2)CC[C@]314 [Compound 50, (4aS,7aR,12bS)-3-(cyclopropylmethyl)-4a-hydroxy-7-oxo-2,3,4,4a,5,6,7,7a-octahydro-1H-4,12-methanobenzofuro[3,2-e]isoquinolin-9-yl icosanoate] gave a solubility at 24 h [1, 3] of under 51 mg/mL, a solubility at 24 h [1, 4] of under 52 mg/mL and a solubility thermodynamic [1, 5] of under 0.001 mg/mL.
Work on C=C1CC[C@@]2(O)C3Cc4ccc(OC(=O)OCCCCCCCCCC)c5c4[C@@]2(CCN3CC2CC2)[C@H]1O5 [Compound 18, (4aS,7aS,12bS)-3-(cyclopropylmethyl)-4a-hydroxy-7-methylene-2,3,4,4a,5,6,7,7a-octahydro-1H-4,12-methanobenzofuro[3,2-e]isoquinolin-9-yl decyl carbonate] yielded a solubility at 24 h [1, 3] of over 400 mg/mL, a solubility at 24 h [1, 4] of over 402 mg/mL and a solubility [1, 6] of over 403 mg/mL. It also gave a solubility [1, 7] of over 403 mg/mL, a solubility [1, 8] of over 209 mg/mL and a solubility thermodynamic [1, 5] of under 0.0002 mg/mL.
